Assay results as given in patent US7048917B1, “Fat-binding polymers” (Genzyme Corporation, priority 1998, dated 2006).

System: Sprague Dawly rats
Assay: Fat-Binding Evaluation via Paper Staining
Assay type: in vivo
Conditions: male rats, chow diet with 15 percent lard; lipase inhibitor (Orlistat) 0.04 percent by weight, no polymer; average of 24 experiments
Description: The model consists of male, Sprague Dawly rats, 160 g, housed individually in wire mesh cages. They were acclimated to the facility for six days, during which time they were fed a chow based diet supplemented with 15 percent lard by weight. Feed and water were provided ad libitum. The animals were then randomly assigned to groups of four and fed test diets for three days. The test diet was also a chow based feed. A lipase inhibitor (Orlistat) was added at 0.04 percent by weight and the polymer was added at 0.30 percent by weight. They were mixed in the feed as a powder followed by the addition of the supplemented fat in the form of lard at 15 percent by weight. During the final 24 hours of the treatment period an 8.5″×11″ sheet of white paper was placed beneath each cage. One inch squares were drawn on the paper creating a grid of 80 squares. When oil in the form of unabsorbed dietary triglyceride seeps from the stool, it stains the paper. This can be readily discerned from urine if the papers were allowed to dry for six hours. The oil stains confer translucence to the paper. The squares that contain these oil stains were counted and expressed as a percentage of total area stained.

CCCCCCCCCCC[C@@H](C[C@@H]1OC(=O)[C@H]1CCCCCC)OC(=O)[C@H](CC(C)C)NC=O [Control 2, Orlistat]
Percentage of Paper Stained: 39 ± 6%
